biological target: T1, human PDE10A (Homo sapiens, UniProt Q9Y233); assay: PDE10A inhibition assay (IMAP fluorescence polarization); format: biochemical; settings: hPDE10A enzyme from transfected HEK293 cell lysate, fluorescein-labeled cAMP/cGMP
T1 construct: Full-length human PDE10A cDNA is amplified using PCR; made in house; host or cells: HEK293 cells, transiently transfected with Lipofectamine 2000; supernatant of the sonicated lysate after 10,000 g
Method: Full-length human PDE10A cDNA is amplified using PCR and cloned into pcDNA3.0 vector (Invitrogen). After verified by DNA sequencing, the plasmid is transfected into HEK293 cell using the Lipofectamine 2000 reagent (Invitrogen). Cells are subsequently harvested and sonicated in cell lysis buffer. After centrifuged at 10,000 g for 20 minutes, supernatant containing cytosolic hPDE10A enzyme is collected and stored at −80° C. PDE10A inhibition assay is performed using the IMAP fluorescence polarization assay (Molecular Devices) according to the manufacturer's protocols. A fixed amount of the hPDE10A enzyme is pretreated with the test compounds, following the addition of fluorescein-labeled cAMP/cGMP. After 1 hour incubation, the IMAP binding reagent is added and incubated for another hour. The fluorescence polarization is then quantified with a fluorescence polarization reader Envision from Perkin Elmer. IC50 values are calculated using the Prism program (GraphPad Software).

T1 sequence (Q9Y233 1-779 isoform Q9Y233-1): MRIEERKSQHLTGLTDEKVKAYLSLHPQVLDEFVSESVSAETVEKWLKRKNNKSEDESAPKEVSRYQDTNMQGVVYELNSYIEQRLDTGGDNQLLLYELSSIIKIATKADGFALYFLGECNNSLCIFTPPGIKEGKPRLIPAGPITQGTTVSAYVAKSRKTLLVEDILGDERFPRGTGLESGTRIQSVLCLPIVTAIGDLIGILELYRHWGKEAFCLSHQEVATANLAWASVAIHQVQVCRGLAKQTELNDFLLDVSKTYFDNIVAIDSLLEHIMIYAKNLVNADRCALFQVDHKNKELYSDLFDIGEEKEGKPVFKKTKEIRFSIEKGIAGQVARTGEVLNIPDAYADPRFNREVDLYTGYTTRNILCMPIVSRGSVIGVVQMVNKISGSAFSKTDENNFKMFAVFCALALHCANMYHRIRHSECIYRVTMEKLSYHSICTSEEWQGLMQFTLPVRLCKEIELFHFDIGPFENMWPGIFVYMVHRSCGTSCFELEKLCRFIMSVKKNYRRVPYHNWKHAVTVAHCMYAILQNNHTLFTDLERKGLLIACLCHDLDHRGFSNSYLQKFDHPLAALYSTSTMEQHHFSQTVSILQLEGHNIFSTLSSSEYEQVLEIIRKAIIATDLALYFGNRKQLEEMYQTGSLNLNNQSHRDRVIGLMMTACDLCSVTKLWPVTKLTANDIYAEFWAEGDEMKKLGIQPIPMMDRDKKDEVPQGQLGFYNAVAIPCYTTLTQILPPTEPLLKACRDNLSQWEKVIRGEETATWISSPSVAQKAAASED

Row | Compound | IC50
1 | FC(F)(F)Cn1cc(-c2ccncc2)c(-c2ccc(C#Cc3ccc4ccccc4n3)cc2)n1 [Example 18] | ≤ 10 nM
2 | C(#Cc1ccc2ccccc2n1)c1ccc(-c2n[nH]cc2-c2ccncc2)cc1 [Example 11, 2-((4-(4-(pyridin-4-yl)-1H-pyrazol-3-yl)phenyl)ethynyl)quinoline] | ≤ 10 nM
3 | Cn1cc(-c2ccncc2)c(-c2ccc(C#Cc3ccc(C4CC4)cn3)cc2)n1 [Example 7, 5-cyclopropyl-2-((4-(1-methyl-4-(pyridin-4-yl)-1H-pyrazol-3-yl)phenyl)ethynyl)pyridine] | ≤ 10 nM
4 | Cn1cc(-c2ccncc2)c(-c2ccc(C#Cc3ccc(C(F)(F)F)cn3)cc2)n1 [Example 9, 2-((4-(1-methyl-4-(pyridin-4-yl)-1H-pyrazol-3-yl)phenyl)ethynyl)-5-(trifluoromethyl)pyridine] | 100 to 1000 nM
5 | C(#Cc1ccc2ccccc2n1)c1ccc(-c2ncncc2-c2ccncc2)cc1 [Example 20, 2-((4-(5-(pyridin-4-yl)pyrimidin-4-yl)phenyl)ethynyl)quinoline] | 10 to 100 nM
6 | CCc1cccc(C#Cc2ccc(-c3nn(C)cc3-c3ccncc3)cc2)n1 [Example 4, 2-Ethyl-6-((4-(1-methyl-4-(pyridin-4-yl)-1H-pyrazol-3-yl)phenyl)ethynyl)pyridine] | ≤ 10 nM
7 | COCCn1cc(-c2ccncc2)c(-c2ccc(C#Cc3ccc4ccccc4n3)cc2)n1 [Example 16, 2-((4-(1-(2-methoxyethyl)-4-(pyridin-4-yl)-1H-pyrazol-3-yl)phenyl)ethynyl)quinoline] | ≤ 10 nM
8 | COc1cccc(C#Cc2ccc(-c3nn(C)cc3-c3ccncc3)cc2)n1 [Example 10, 2-methoxy-6-((4-(1-methyl-4-(pyridin-4-yl)-1H-pyrazol-3-yl)phenyl)ethynyl)pyridine] | ≤ 10 nM
9 | Cc1ccc(C#Cc2ccc(-c3nn(C)cc3-c3ccncc3)cc2)nc1 [Example 6] | ≤ 10 nM
10 | CN(C)CCn1cc(-c2ccncc2)c(-c2ccc(C#Cc3ccc4ccccc4n3)cc2)n1 [Example 17, N,N-dimethyl-2-(4-(pyridine-4-yl)-3-(4-(quinolin-2-ylethynyl)phenyl)-1H-pyrazol-1-yl)ethanamine] | ≤ 10 nM
11 | Cc1cccc(C#Cc2ccc(-c3nn(C)cc3-c3ccncc3)cc2)n1 [Example 3] | ≤ 10 nM
12 | FCCn1cc(-c2ccncc2)c(-c2ccc(C#Cc3ccc4ccccc4n3)cc2)n1 [Example 19, 2-((4-(1-(2-fluoroethyl)-4-(pyridin-4-yl)-1H-pyrazol-3-yl)phenyl)ethynyl)quinoline] | ≤ 10 nM
13 | OCCn1cc(-c2ccncc2)c(-c2ccc(C#Cc3ccc4ccccc4n3)cc2)n1 [Example 13, 2-(4-(pyridin-4-yl)-3-(4-(quinolin-2-ylethynyl)phenyl)-1H-pyrazol-1-yl)ethanol] | ≤ 10 nM
14 | CCn1cc(-c2ccncc2)c(-c2ccc(C#Cc3ccc4ccccc4n3)cc2)n1 [Example 15, 2-((4-(1-ethyl-4-(pyridin-4-yl)-1H-pyrazol-3-yl)phenyl)ethynyl)quinoline] | ≤ 10 nM
15 | C(#Cc1ccc2ccccc2n1)c1ccc(-c2nn(C3CC3)cc2-c2ccncc2)cc1 [Example 12, 2-((4-(1-cyclopropyl-4-(pyridin-4-yl)-1H-pyrazol-3-yl)phenyl)ethynyl)quinoline] | ≤ 10 nM
16 | Cn1cc(-c2ccncc2)c(-c2ccc(C#Cc3cccc(C4CC4)n3)cc2)n1 [Example 5, 2-cyclopropyl-6-((4-(1-methyl-4-(pyridin-4-yl)-1H-pyrazol-3-yl)phenyl)ethynyl)pyridine] | 10 to 100 nM
17 | Cn1cc(-c2ccncc2)c(-c2ccc(C#Cc3cccc(C(F)(F)F)n3)cc2)n1 [Example 8, 2-((4-(1-methyl-4-(pyridin-4-yl)-1H-pyrazol-3-yl)phenyl)ethynyl)-6-(trifluoromethyl)pyridine] | 100 to 1000 nM
18 | CNCCn1cc(-c2ccncc2)c(-c2ccc(C#Cc3ccc4ccccc4n3)cc2)n1 [Example 14, N-methyl-2-(4-(pyridin-4-yl)-3-(4-(quinolin-2-ylethynyl)phenyl)-1H-pyrazol-1-yl)ethanamine] | ≤ 10 nM
19 | Cn1cc(-c2ccncc2)c(-c2ccc(C#Cc3ncc4ccccc4n3)cc2)n1 [Example 2, 2-((4-(1-methyl-4-(pyridin-4-yl)-1H-pyrazol-3-yl)phenyl)ethynyl)quinazoline] | ≤ 10 nM
20 | Cn1cc(-c2ccncc2)c(-c2ccc(C#Cc3ccc4ccccc4n3)cc2)n1 [Example 1, 2-((4-(1-methyl-4-(pyridin-4-yl)-1H-pyrazol-3-yl)phenyl)ethynyl)quinoline] | ≤ 10 nM
21 | C(#Cc1ccc2ccccc2n1)c1ccc(-n2ncnc2-c2ccncc2)cc1 [Example 21, 2-((4-(5-(pyridin-4-yl)-1H-1,2,4-triazol-1-yl)phenyl)ethynyl)quinoline] | 10 to 100 nM

Continued, values first:

Row | IC50 | Compound
22 | 10 to 100 nM | Cn1cc(-c2ccncn2)c(-c2ccc(C#Cc3ccc4ccccc4n3)cc2)n1 [Example 26]
23 | 10 to 100 nM | Cn1ncc(-c2ccc(C#Cc3ccc4ccccc4n3)cc2)c1-c1ccncc1 [Example 37, 2-((4-(1-methyl-5-(pyridin-4-yl)-1H-pyrazol-4-yl)phenyl)ethynyl)quinoline]
24 | ≤ 10 nM | C(#Cc1ccc2ccccc2n1)c1ccc(-c2c[nH]nc2-c2ccncc2)cc1 [Example 35, 2-((4-(3-(pyridin-4-yl)-1H-pyrazol-4-yl)phenyl)ethynyl)quinoline]
25 | ≤ 10 nM | CCn1cc(-c2ccncc2)c(-c2ccc(C#Cc3ccc4ccccc4n3)nc2)n1 [Example 31, 2-((5-(1-ethyl-4-(pyridin-4-yl)-1H-pyrazol-3-yl)pyridin-2-yl)ethynyl)quinoline]
26 | ≤ 10 nM | Cn1cc(-c2ccncc2)c(-c2ccc(C#Cc3ccc4ccccc4n3)cn2)n1 [Example 27, 2-((6-(1-methyl-4-(pyridin-4-yl)-1H-pyrazol-3-yl)pyridin-3-yl)ethynyl)quinoline]
27 | ≤ 10 nM | Cn1cc(-c2ccc(C#Cc3ccc4ccccc4n3)cc2)c(-c2ccncc2)n1 [Example 36, 2-((4-(1-methyl-3-(pyridin-4-yl)-1H-pyrazol-4-yl)phenyl)ethynyl)quinoline]
28 | ≤ 10 nM | C(#Cc1ccc2ccccc2n1)c1ccc(-c2ccnn2-c2ccncc2)cc1 [Example 28, 2-((4-(1-(pyridin-4-yl)-1H-pyrazol-5-yl)phenyl)ethynyl)quinoline]
29 | ≤ 10 nM | Cn1cc(-c2ccncc2)c(-c2ccc(C#Cc3ccc4ccccc4n3)cc2F)n1 [Example 25, 2-((3-fluoro-4-(1-methyl-4-(pyridin-4-yl)-1H-pyrazol-3-yl)phenyl)ethynyl)quinoline]
30 | 10 to 100 nM | Cn1cc(-c2ccc(O)cc2)c(-c2ccc(C#Cc3ccc4ccccc4n3)cc2)n1 [Example 34, 4-(1-methyl-3-(4-(quinolin-2-ylethynyl)phenyl)-1H-pyrazol-4-yl)phenol]
31 | 10 to 100 nM | COc1ccc(-c2cn(C)nc2-c2ccc(C#Cc3ccc4ccccc4n3)cc2)cc1 [Example 33, 2-((4-(4-(4-methoxyphenyl)-1-methyl-1H-pyrazol-3-yl)phenyl)ethynyl)quinoline]
32 | ≤ 10 nM | C(#Cc1ccc2ccccc2n1)c1ccc(-n2nccc2-c2ccncc2)cc1 [Example 22, 2-((4-(5-(pyridin-4-yl)-1H-pyrazol-1-yl)phenyl)ethynyl)quinoline]
33 | ≤ 10 nM | Cn1cc(-c2ccncc2)c(-c2ccc(C#Cc3ccc4ccccc4n3)nc2)n1 [Example 24, 2-(5-(1-methyl-4-pyridin-4-yl-1H-pyrazol-3-yl)pyridin-2-ylethynyl)quinoline]
34 | 10 to 100 nM | C(#Cc1ccc2ccccc2n1)c1ccc(-n2cnnc2-c2ccncc2)cc1 [Example 23, 2-((4-(3-(pyridin-4-yl)-4H-1,2,4-triazol-4-yl)phenyl)ethynyl)quinoline]
35 | ≤ 10 nM | FCCn1cc(-c2ccncc2)c(-c2ccc(C#Cc3ccc4ccccc4n3)nc2)n1 [Example 32, 2-((5-(1-(2-fluoroethyl)-4-(pyridin-4-yl)-1H-pyrazol-3-yl)pyridin-2-yl)ethynyl)quinoline]

— patent publication US20130158031A1 (SU ZHOU JING HONG BIOTECH CO., LTD., priority 2011, published 2013)
